Laboratory results published in patent publication US8835124B2, “Method for treating cancer with agents that bind phosphorylated CDC27” (The Nemours Foundation, priority 2011, dated 2014).

Columns and labels:
[1] = test system: DAOY medulloblastoma cells; test: Cell cycle analysis by flow cytometry after release from thymidine/nocodazole mitotic block; assay type: cell-based, human; details: for cells remained in G2/M: 10 μM curcumin; for G0/G1 / G2/M / S / Sub G0/G1: DAOY released from thymidine/nocodazole block
Method: DNA was stained with 100 μg/ml propidium iodide (PI) in hypotonic citrate buffer with 20 μg/ml ribonuclease A. Stained nuclei were analyzed for DNA-PI fluorescence using an Accuri C6 flow cytometer (Accuri Cytometers Inc., Ann Arbor, Mich.). Resulting DNA distributions for sub G0/G1, G0/G1, S and G2/M phase of the cell cycle were analyzed with CFlow plus software (Accuri Cytometers Inc).
(§1) For analysis of cell cycle profiles after mitotic block, cells were synchronized with 2 mM thymidine for 24 hours. The block was released for 3 hours and cells were arrested in prometaphase with 100 nM nocodazole for 12 hours. For G1/S arrest, cells were synchronized for 18 hours with 2 mM thymidine, released for 9 hours, followed by a second thymidine arrest for 18 hours. The block was then released in the presence of DMSO or curcumin as indicated and the cells were processed as described above.
For analysis of cell cycle profiles after mitotic block, cells were synchronized with 2 mM thymidine for 24 hours. The block was released for 3 hours and cells were arrested in prometaphase with 100 nM nocodazole for 12 hours. For G1/S arrest, cells were synchronized for 18 hours with 2 mM thymidine, released for 9 hours, followed by a second thymidine arrest for 18 hours. The block was then released in the presence of DMSO or curcumin as indicated and the cells were processed as described above. […] The data from these cell cycle studies are the mean±SEM of three independent experiments. […]

Cdc27 = target: T1, Cdc27 (Homo sapiens, UniProt P30260); test: Pull-down from DAOY cell lysates with curcumin-bound Sepharose beads; assay type: binding; details: two independent bead preparations, vs control beads
T1 construct: endogenous in cells; host or cells: DAOY medulloblastoma cells
T1 sequence (P30260 1-830 isoform P30260-2): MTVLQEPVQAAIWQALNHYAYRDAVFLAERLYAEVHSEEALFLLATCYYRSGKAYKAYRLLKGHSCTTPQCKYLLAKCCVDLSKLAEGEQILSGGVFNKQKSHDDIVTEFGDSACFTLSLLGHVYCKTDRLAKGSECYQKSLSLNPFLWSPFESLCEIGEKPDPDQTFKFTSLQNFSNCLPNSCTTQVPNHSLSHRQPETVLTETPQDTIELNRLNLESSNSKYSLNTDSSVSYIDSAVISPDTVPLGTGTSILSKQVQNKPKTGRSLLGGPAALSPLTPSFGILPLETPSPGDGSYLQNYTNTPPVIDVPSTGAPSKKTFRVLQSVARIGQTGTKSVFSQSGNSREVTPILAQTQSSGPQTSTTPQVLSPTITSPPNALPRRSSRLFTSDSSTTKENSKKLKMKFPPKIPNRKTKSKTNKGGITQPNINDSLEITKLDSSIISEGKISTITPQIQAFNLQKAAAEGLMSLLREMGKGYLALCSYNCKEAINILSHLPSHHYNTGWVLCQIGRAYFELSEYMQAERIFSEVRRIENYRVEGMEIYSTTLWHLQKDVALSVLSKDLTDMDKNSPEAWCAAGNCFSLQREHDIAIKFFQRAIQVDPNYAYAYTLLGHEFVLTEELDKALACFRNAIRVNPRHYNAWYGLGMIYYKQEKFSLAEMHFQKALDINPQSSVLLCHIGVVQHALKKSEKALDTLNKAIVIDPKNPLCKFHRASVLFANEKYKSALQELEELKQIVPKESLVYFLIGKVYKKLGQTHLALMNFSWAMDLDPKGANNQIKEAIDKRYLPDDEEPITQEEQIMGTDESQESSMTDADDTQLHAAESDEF
Method: After washing, unoccupied binding sites were blocked with 1 M ethanolamine by overnight incubation. Low (0.1 M acetate buffer, pH 4) and high (0.1 M Tris-HCl, pH 8, 0.5 M NaCl) pH buffers were used each three times to wash and equilibrate the beads. Control beads were prepared in parallel with curcumin-coupled beads but curcumin was omitted. DAOY cell lysates were prepared in a lysis buffer of 100 mM HEPES, pH 7.6, 300 mM NaCl, 0.1% Triton X-100, 2 mM EDTA, 2 mM EGTA supplemented with phosphatase and protease inhibitors. 500 μg of protein was mixed with 20 μl of curcumin-coupled Sepharose beads and incubated for 3 hours at 4° C. After washing bound proteins were eluted with 1×SDS-PAGE sample buffer and processed for immunoblotting.
DAOY cell lysates were incubated with curcumin-bound Sepharose beads and then subjected to SDS-PAGE and immunoblotting with Cdc27. A BubR1 immunoblot was included as control for non-specific binding. […] The cell lysates were separated by SDS-PAGE and immunoblotted for Cdc27. […] Data represent mean±SEM of three independent experiments.

NT2 and MDCK cells = test: Cell cycle progression after release from thymidine/nocodazole block; assay type: cell-based; details: different concentrations of curcumin
Method: as §1
NT2 and MDCK cells were arrested with thymidine/nocodazole treatment. […] DNA contents were analyzed for cell cycle progression. The data shown in FIG. 7 are expressed as mean±SEM of three independent experiments.

[2] = target: T2, Cdc27 association with p55Cdc20, APC2, APC8 (Homo sapiens, UniProt P30260); test: Co-immunoprecipitation with anti-Cdc27 antibodies; assay type: cell-based; details: DAOY, curcumin for 8 hours
T2 construct: endogenous in cells
Method: For immunoprecipitation, cells were lysed at 4° C. for 30 min in a buffer of 50 mM HEPES, pH 7.4, 150 mM NaCl 0.5% NP-40, 1 mM EDTA, 1 mM Na3VO4, 1 mM aprotinin, 1 mM leupeptin and 1 mM PMSF. Equal amounts of protein (from 0.5 to 2 mg) were incubated with Cdc27 antibody for 4 hours at 4° C. followed by protein G-Sepharose (GE Healthcare) for 2 hours, washed extensively, and analyzed by immunoblotting with indicated antibodies. For λ-phosphatase treatment, Cdc27 was immunoprecipitated as above except that phosphatase and protease inhibitors were omitted and then incubated with λ-[…]phosphatase according to the manufacturer's protocol (New England Biolabs, Ipswich, Mass.).
Proper APC/C function requires co-activator proteins such as Cdc20 or Cdh1 that may facilitate the recruitment of substrates. […] Cell lysates were subjected to immunoprecipitation with anti-Cdc27 antibodies. Immunoprecipitated proteins were immunoblotted with antibodies to APC2, APC8, p55 Cdc20 or Cdh1. Immunoblots of total cell lysates are shown to ensure equal loading. […] Under the experimental conditions used, Cdh1 was not found to be associating with Cdc27 (FIG. 8C).

DAOY cells = test: LDH release cytotoxicity assay; assay type: cell-based, human; details: 24 hours, 0, 5, 10 and 20 μM; high phosphorylated Cdc27
Method: (§2) Lactate dehydrogenase (LDH) levels as a measure of cell death were determined using the Non-radioactive Cytotoxicity kit (Promega, Madison, Wis.) according to manufacturer's instructions. […] Cell debris was removed by centrifugation. Viable cell LDH was collected from cells lysed by freezing for 15 minutes at −70° C. followed by thawing at 37° C. The medium was collected and cleared from cell debris by centrifugation. The relative release of LDH was determined as the ratio of released LDH versus total LDH from viable cells.

medulloblastoma = medulloblastoma in vivo model; cited from earlier work
MDCK cells = test: LDH release cytotoxicity assay; assay type: cell-based; details: 24 hours, 0, 5, 10 and 20 μM; low phosphorylated Cdc27
Method: as §2

COc1cc(/C=C/C(=O)CC(=O)/C=C/c2ccc(O)c(OC)c2)ccc1O [Curcumin, (E,E)-1,7-bis(4-hydroxy-3-methoxyphenyl)-1,6-heptadiene-3,5-dion]
cells remained in G2/M ([1]; six hours after release from mitotic block): 47.7%
cells remained in G2/M ([1]; two hours after release from mitotic block): 91.5%
cells found in G2/M ([1]; 20 μM curcumin, 10 hours of release from mitotic block): 69.8%
cells in the sub-G0/G1 fraction ([1]; 20 μM curcumin, after release from mitotic block): a significant amount of cells was in the sub-G0/G1 fraction
G0/G1 ([1]; 10 μM Curcumin, 0 Hr): 7.38 ± 3.12%
G2/M ([1]; 10 μM Curcumin, 0 Hr): 70.15 ± 0.75%
S ([1]; 10 μM Curcumin, 0 Hr): 17.68 ± 4.78%
Sub G0/G1 ([1]; 10 μM Curcumin, 0 Hr): 4.80 ± 2.40%
G0/G1 ([1]; 10 μM Curcumin, 2 Hr): 16.87 ± 4.87%
G2/M ([1]; 10 μM Curcumin, 2 Hr): 64.16 ± 7.74%
S ([1]; 10 μM Curcumin, 2 Hr): 10.76 ± 0.04%
Sub G0/G1 ([1]; 10 μM Curcumin, 2 Hr): 8.21 ± 2.91%
G0/G1 ([1]; 10 μM Curcumin, 4 Hr): 35.54 ± 1.94%
G2/M ([1]; 10 μM Curcumin, 4 Hr): 46.47 ± 0.17%
S ([1]; 10 μM Curcumin, 4 Hr): 9.47 ± 2.03%
Sub G0/G1 ([1]; 10 μM Curcumin, 4 Hr): 8.57 ± 0.13%
G0/G1 ([1]; 10 μM Curcumin, 6 Hr): 43.93 ± 3.13%
G2/M ([1]; 10 μM Curcumin, 6 Hr): 33.43 ± 5.27%
S ([1]; 10 μM Curcumin, 6 Hr): 12.07 ± 0.53%
Sub G0/G1 ([1]; 10 μM Curcumin, 6 Hr): 10.57 ± 2.67%
G0/G1 ([1]; 10 μM Curcumin, 8 Hr): 47.60 ± 4.00%
G2/M ([1]; 10 μM Curcumin, 8 Hr): 26.86 ± 6.24%
S ([1]; 10 μM Curcumin, 8 Hr): 15.54 ± 0.56%
Sub G0/G1 ([1]; 10 μM Curcumin, 8 Hr): 9.99 ± 2.79%
G0/G1 ([1]; 10 μM Curcumin, 10 Hr): 48.68 ± 8.18%
G2/M ([1]; 10 μM Curcumin, 10 Hr): 22.65 ± 11.35%
S ([1]; 10 μM Curcumin, 10 Hr): 19.88 ± 0.32%
Sub G0/G1 ([1]; 10 μM Curcumin, 10 Hr): 8.85 ± 3.45%
G0/G1 ([1]; 20 μM Curcumin, 0 Hr): 7.38 ± 3.12%
G2/M ([1]; 20 μM Curcumin, 0 Hr): 70.15 ± 0.75%
S ([1]; 20 μM Curcumin, 0 Hr): 17.68 ± 4.76%
Sub G0/G1 ([1]; 20 μM Curcumin, 0 Hr): 4.80 ± 2.40%
G0/G1 ([1]; 20 μM Curcumin, 2 Hr): 11.51 ± 2.81%
G2/M ([1]; 20 μM Curcumin, 2 Hr): 67.21 ± 5.39%
S ([1]; 20 μM Curcumin, 2 Hr): 13.86 ± 0.34%
Sub G0/G1 ([1]; 20 μM Curcumin, 2 Hr): 7.42 ± 2.92%
G0/G1 ([1]; 20 μM Curcumin, 4 Hr): 16.77 ± 1.63%
G2/M ([1]; 20 μM Curcumin, 4 Hr): 65.00 ± 1.30%
S ([1]; 20 μM Curcumin, 4 Hr): 10.77 ± 1.57%
Sub G0/G1 ([1]; 20 μM Curcumin, 4 Hr): 7.46 ± 1.36%
G0/G1 ([1]; 20 μM Curcumin, 6 Hr): 22.09 ± 0.81%
G2/M ([1]; 20 μM Curcumin, 6 Hr): 52.27 ± 5.63%
S ([1]; 20 μM Curcumin, 6 Hr): 14.02 ± 2.02%
Sub G0/G1 ([1]; 20 μM Curcumin, 6 Hr): 11.67 ± 4.37%
G0/G1 ([1]; 20 μM Curcumin, 8 Hr): 24.20 ± 0.30%
G2/M ([1]; 20 μM Curcumin, 8 Hr): 51.55 ± 9.55%
S ([1]; 20 μM Curcumin, 8 Hr): 13.45 ± 3.65%
Sub G0/G1 ([1]; 20 μM Curcumin, 8 Hr): 10.85 ± 5.55%
G0/G1 ([1]; 20 μM Curcumin, 10 Hr): 25.15 ± 0.85%
G2/M ([1]; 20 μM Curcumin, 10 Hr): 48.95 ± 10.95%
S ([1]; 20 μM Curcumin, 10 Hr): 14.22 ± 4.02%
Sub G0/G1 ([1]; 20 μM Curcumin, 10 Hr): 11.67 ± 6.07%
pull-down of Cdc27 by curcumin-bound Sepharose beads (Cdc27): pulled down Cdc27
mitotic progression after release from mitotic block (NT2 and MDCK cells): selectively blocks mitotic progression in different cell lines with phosphorylated APC3/Cdc27
Cdc27 association with the APC/C subunits APC2 and APC8 [2]: not affected
p55Cdc20 association with Cdc27 ([2]; compared to control cells): dramatically reduced
sensitivity to curcumin-induced apoptosis (LDH release) (DAOY cells): most sensitive
medulloblastoma growth (medulloblastoma): can inhibit medulloblastoma growth
sensitivity to curcumin-induced apoptosis (LDH release) (MDCK cells): almost unaffected
